Laboratory results taken from PubChem BioAssay (NCI).
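Dose response: 5 concentrations. Exposure: 48 h. Format: 96-well plates. Endpoint: linear interpolation; highest concentration if not reached. TGI: concentration producing complete growth inhibition.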

Key:
Test in all cases: NCI anticancer screen, dose series, 48 h
SN12C renal = system: SN12C renal
SK-MEL-5 melanoma = system: SK-MEL-5 melanoma
A498 renal = system: A498 renal
K-562 leukemia = system: K-562 leukemia
T-47D breast = system: T-47D breast
SW-620 colon = system: SW-620 colon
MDA-MB-435 = system: MDA-MB-435
CAKI-1 renal = system: CAKI-1 renal
BT-549 breast = system: BT-549 breast
COLO 205 colon = system: COLO 205 colon
OVCAR-4 ovarian = system: OVCAR-4 ovarian
LOX IMVI melanoma = system: LOX IMVI melanoma
HOP-62 NSCLC = system: HOP-62 NSCLC
SK-MEL-28 melanoma = system: SK-MEL-28 melanoma
RXF 393 renal = system: RXF 393 renal
HT29 colon = system: HT29 colon
HCT-15 colon = system: HCT-15 colon
SF-295 CNS = system: SF-295 CNS
UACC-257 melanoma = system: UACC-257 melanoma
EKVX NSCLC = system: EKVX NSCLC
HS 578T breast = system: HS 578T breast
NCI-H460 lung = system: NCI-H460 lung
786-0 renal = system: 786-0 renal
OVCAR-8 ovarian = system: OVCAR-8 ovarian
U251 CNS = system: U251 CNS
MDA-MB-231 breast = system: MDA-MB-231 breast
MDA-N = system: MDA-N
RPMI-8226 leukemia = system: RPMI-8226 leukemia
SR leukemia = system: SR leukemia
A549 NSCLC = system: A549 NSCLC
SNB-75 CNS = system: SNB-75 CNS
HCT-116 colon = system: HCT-116 colon
M14 melanoma = system: M14 melanoma
NCI-H522 lung = system: NCI-H522 lung
OVCAR-3 ovarian = system: OVCAR-3 ovarian
UO-31 renal = system: UO-31 renal
MALME-3M melanoma = system: MALME-3M melanoma
MOLT-4 leukemia = system: MOLT-4 leukemia
PC-3 prostate = system: PC-3 prostate
KM12 colon = system: KM12 colon
OVCAR-5 ovarian = system: OVCAR-5 ovarian
IGROV1 ovarian = system: IGROV1 ovarian
HL-60(TB) leukemia = system: HL-60(TB) leukemia
SF-539 CNS = system: SF-539 CNS
DU-145 prostate = system: DU-145 prostate
NCI-H226 lung = system: NCI-H226 lung
SNB-19 CNS = system: SNB-19 CNS
NCI-H23 lung = system: NCI-H23 lung
MCF7 breast = system: MCF7 breast
ACHN renal = system: ACHN renal
SF-268 CNS = system: SF-268 CNS
HCC-2998 colon = system: HCC-2998 colon
TK-10 renal = system: TK-10 renal
NCI/ADR-RES ovarian = system: NCI/ADR-RES ovarian
HOP-92 NSCLC = system: HOP-92 NSCLC
SK-OV-3 ovarian = system: SK-OV-3 ovarian
CCRF-CEM leukemia = system: CCRF-CEM leukemia
SK-MEL-2 melanoma = system: SK-MEL-2 melanoma
UACC-62 melanoma = system: UACC-62 melanoma

CO[C@@H]1C[C@H]2[C@@H]3CC[C@H]([C@H](C)CO)[C@@]3(C)CC[C@@H]2[C@@]2(C)CC[C@H]3C[C@]312
TGI (SN12C renal): > 100 µM
TGI (SK-MEL-5 melanoma): 78.1 µM
TGI (A498 renal): > 100 µM
TGI (K-562 leukemia): > 100 µM
TGI (T-47D breast): > 100 µM
TGI (SW-620 colon): > 100 µM
TGI (MDA-MB-435): > 100 µM
TGI (CAKI-1 renal): > 100 µM
TGI (BT-549 breast): 49.9 µM
TGI (COLO 205 colon): 35.3 µM
TGI (OVCAR-4 ovarian): > 100 µM
TGI (LOX IMVI melanoma): 46.5 µM
TGI (HOP-62 NSCLC): > 100 µM
TGI (SK-MEL-28 melanoma): > 100 µM
TGI (RXF 393 renal): > 100 µM
TGI (HT29 colon): 40.8 µM
TGI (HCT-15 colon): > 100 µM
TGI (SF-295 CNS): 85.9 µM
TGI (UACC-257 melanoma): 86.5 µM
TGI (EKVX NSCLC): > 100 µM
TGI (HS 578T breast): > 100 µM
TGI (NCI-H460 lung): 74.8 µM
TGI (786-0 renal): > 100 µM
TGI (OVCAR-8 ovarian): > 100 µM
TGI (U251 CNS): 85.4 µM
TGI (MDA-MB-231 breast): > 100 µM
TGI (MDA-N): > 100 µM
TGI (RPMI-8226 leukemia): 58 µM
TGI (SR leukemia): > 100 µM
TGI (A549 NSCLC): > 100 µM
TGI (SNB-75 CNS): > 100 µM
TGI (HCT-116 colon): > 100 µM
TGI (M14 melanoma): > 100 µM
TGI (NCI-H522 lung): > 100 µM
TGI (OVCAR-3 ovarian): > 100 µM
TGI (UO-31 renal): > 100 µM
TGI (MALME-3M melanoma): > 100 µM
TGI (MOLT-4 leukemia): > 100 µM
TGI (PC-3 prostate): 92.6 µM
TGI (KM12 colon): 35.9 µM
TGI (OVCAR-5 ovarian): > 100 µM
TGI (IGROV1 ovarian): > 100 µM
TGI (HL-60(TB) leukemia): 47.2 µM
TGI (SF-539 CNS): > 100 µM
TGI (DU-145 prostate): > 100 µM
TGI (NCI-H226 lung): > 100 µM
TGI (SNB-19 CNS): > 100 µM
TGI (NCI-H23 lung): > 100 µM
TGI (MCF7 breast): 47.8 µM
TGI (ACHN renal): > 100 µM
TGI (SF-268 CNS): > 100 µM
TGI (HCC-2998 colon): > 100 µM
TGI (TK-10 renal): > 100 µM
TGI (NCI/ADR-RES ovarian): > 100 µM
TGI (HOP-92 NSCLC): 63.6 µM

c1cc(-c2ccc(-c3ccc(C4=NCCCN4)cc3)o2)ccc1C1=NCCCN1
TGI (SN12C renal): 95.7 µM
TGI (SK-MEL-5 melanoma): > 100 µM
TGI (A498 renal): 13.4 µM
TGI (K-562 leukemia): > 100 µM
TGI (T-47D breast): > 100 µM
TGI (SW-620 colon): > 100 µM
TGI (SK-OV-3 ovarian): > 100 µM
TGI (MDA-MB-435): > 100 µM
TGI (CAKI-1 renal): > 100 µM
TGI (BT-549 breast): > 100 µM
TGI (COLO 205 colon): > 100 µM
TGI (OVCAR-4 ovarian): > 100 µM
TGI (LOX IMVI melanoma): > 100 µM
TGI (HOP-62 NSCLC): > 100 µM
TGI (SK-MEL-28 melanoma): > 100 µM
TGI (RXF 393 renal): > 100 µM
TGI (HT29 colon): > 100 µM
TGI (HCT-15 colon): > 100 µM
TGI (SF-295 CNS): > 100 µM
TGI (UACC-257 melanoma): > 100 µM
TGI (EKVX NSCLC): > 100 µM
TGI (HS 578T breast): > 100 µM
TGI (NCI-H460 lung): > 100 µM
TGI (786-0 renal): > 100 µM
TGI (OVCAR-8 ovarian): > 100 µM
TGI (CCRF-CEM leukemia): > 100 µM
TGI (U251 CNS): > 100 µM
TGI (SK-MEL-2 melanoma): > 100 µM
TGI (MDA-MB-231 breast): > 100 µM
TGI (MDA-N): > 100 µM
TGI (SR leukemia): > 100 µM
TGI (A549 NSCLC): > 100 µM
TGI (SNB-75 CNS): > 100 µM
TGI (HCT-116 colon): > 100 µM
TGI (M14 melanoma): > 100 µM
TGI (NCI-H522 lung): > 100 µM
TGI (OVCAR-3 ovarian): > 100 µM
TGI (UO-31 renal): > 100 µM
TGI (MALME-3M melanoma): > 100 µM
TGI (UACC-62 melanoma): > 100 µM
TGI (MOLT-4 leukemia): > 100 µM
TGI (PC-3 prostate): > 100 µM
TGI (KM12 colon): > 100 µM
TGI (OVCAR-5 ovarian): > 100 µM
TGI (HL-60(TB) leukemia): > 100 µM
TGI (SF-539 CNS): > 100 µM
TGI (DU-145 prostate): > 100 µM
TGI (NCI-H226 lung): > 100 µM
TGI (SNB-19 CNS): > 100 µM
TGI (NCI-H23 lung): > 100 µM
TGI (MCF7 breast): > 100 µM
TGI (ACHN renal): > 100 µM
TGI (SF-268 CNS): > 100 µM
TGI (HCC-2998 colon): > 100 µM
TGI (TK-10 renal): > 100 µM
TGI (NCI/ADR-RES ovarian): > 100 µM
TGI (HOP-92 NSCLC): > 100 µM
